Test results taken from patent EP3513780A1, “METHOD FOR SUPPORTING EPIDERMAL STEM CELL SELF-RENEWAL” (DSM IP Assets B.V., priority 2018, dated 2019).

How the values were obtained:
KLK7 = assay: Gene expression (qPCR) in NHEK: KLK7; format: cell-based, human; conditions: 24 hours, 0.1 mM (Vitamin B12 0.03 mM), normalized to HPRT1, n.s. = not statistically significant
Method: (§1) Vitamin B2, 0.1 mM • 2. D-panthenol, 0.1 mM • 3. Pyridoxine HCl, 0.1 mM • 4. Vitamin B12, 0.03mM • 5. Niacinamide, 0.1 mM • 6. Folic Acid, 0.1 mM
(§2) All Test Materials were diluted in DermaLife K medium.
(§3) Fresh media replacements were performed every other day.
(§4) OpenArray format. […] Each gene was assayed in duplicate.
(§5) See the Endogenous Control Selection section for more details. Unpaired t-tests were carried out using StatMiner software.

hsa-miR-720 = assay: microRNA expression (qPCR) in NHEK: hsa-miR-720; conditions: 24 hours, 0.1 mM (Vitamin B12 0.03 mM), vs Control group, normalized to RNU44, N=4, negative = decrease
Method: (§6) The study was conducted to understand how different vitamin B supplements influence microRNA and mRNA gene expression in keratinocytes. MicroRNAs are small, non-coding RNA molecules that function as negative regulators of gene expression. […] The current study was performed using normal human epidermal keratinocytes [NHEK].
as §2
(§7) An initial cytotoxicity screening was performed to evaluate a range of Test Material concentrations prior to the microRNA analysis. […] Pyridoxine HCl, 0.1 mM • 4. Vitamin B12, 0.03mM • 5. Niacinamide, 0.1 mM • 6.
(§8) Unpaired t-tests (p<0.05, N=4) were performed to compare each Test Material group to the Control group. […] An endogenous control microRNAs (RNU44) was used for normalization.
as §1, §3
(§9) The preamplification reaction was run for 12 cycles.
(§10) qPCR Processing: qPCR reactions were run using validated Taqman® MicroRNA assays in a Custom OpenArray format. […] Each microRNA was assayed in duplicate.
(§11) Unpaired t-tests were carried out using StatMiner software.

KRT1 = assay: Gene expression (qPCR) in NHEK: KRT1; format: cell-based, human; conditions: 24 hours, 0.1 mM (Vitamin B12 0.03 mM), normalized to HPRT1, n.s. = not statistically significant
Method: as §1, §2, §3, §4, §5

LCE3D = assay: Gene expression (qPCR) in NHEK: LCE3D; format: cell-based, human; conditions: 24 hours, 0.1 mM (Vitamin B12 0.03 mM), normalized to HPRT1, n.s. = not statistically significant
Method: as §1, §2, §3, §4, §5

hsa-miR-203 = assay: microRNA expression (qPCR) in NHEK: hsa-miR-203; conditions: for Changes in microRNA Expression of hsa-miR-203 (linear fold-change): 24 hours, 0.1 mM (Vitamin B12 0.03 mM), vs Control group, normalized to RNU44, N=4, negative = decrease
Method: as §6, §2, §7, §8, §1, §3, §9, §10, §11

CALML5 = assay: Gene expression (qPCR) in NHEK: CALML5; format: cell-based, human; conditions: 24 hours, 0.1 mM (Vitamin B12 0.03 mM), normalized to HPRT1, n.s. = not statistically significant
Method: as §1, §2, §3, §4, §5

TP63 = assay: Gene expression (qPCR) in NHEK: TP63; conditions: for Linear Fold-Change Value, Each Group vs the Untreated Control: TP63: 24 hours, 0.1 mM (Vitamin B12 0.03 mM), normalized to HPRT1, n.s. = not statistically significant
Method: Cell Culture, Cytotoxicity Screening: NHEK [purchased from Lifeline Cell Technologies] were cultured and maintained at 37°C with 5% CO2 using DermaLife K medium according to the manufacturer's recommendations. Two days prior to treatment, NHEK were seeded at a density of -20,000 cells per cm^2 in 24-well plates. Cultures were approximately 75% confluent at the time of treatment.
Stock solutions and final working concentrations of each Test Material were prepared: The following treatment groups were included in the study (N=4): • 1. Vitamin B2, 0.1 mM • 2. D-panthenol, 0.1 mM • 3. Pyridoxine HCl, 0.1 mM • 4. Vitamin B12, 0.03mM • 5. Niacinamide, 0.1 mM • 6. Folic Acid, 0.1 mM
All Test Materials were diluted in DermaLife K medium. NHEK cultured in DermaLife K medium without added supplements served as the Control group.
Treatment and Maintenance of Cultures: Maintenance medium (DermaLife K) was removed from each culture well and replaced with 500 µL (for 24-well cytotoxicity screening) or 2.0 mL (for 6-well gene expression screening) prewarmed Test Medium. Following application of Test Media, the cultures were returned to the incubator at 37°C with 5 % CO2 for 24 hours.
Treatment and Collection of Cell Culture for Gene Expression: Cultures were seeded at a concentration of 20,000 cells/cm^2 in a 6-well plate and incubated for three days at 37°C with 5 % CO2. Fresh media replacements were performed every other day. On the day of treatment, maintenance medium was replaced with test medium. Following a 24 hour exposure, test medium was removed and cell lysis was performed through the addition of 700uL Qiazol lysis buffer (Qiagen) to each well. Cell lysates were immediately collected and stored at -80°C.
RNA Isolation: Total RNA was isolated from frozen cell lysates using a Qiagen miRNeasy Mini kit following the manufacturer's instructions for cultured cells. Total RNA concentration and purity were determined using a Nanodrop 2000 spectrophotometer.
OpenArray format. OpenArrays were run in a Life Technologies QuantStudio 12K Flex instrument. Each gene was assayed in duplicate.
Data Analysis: qPCR data was imported into RealTime StatMiner software v4.2 for statistical analysis using the relative quantitation (RQ) method. […] Unpaired t-tests were carried out using StatMiner software. Statistically significant changes in gene expression (p<0.05) are reported. Linear fold-change data for each subject was calculated using Microsoft Excel.For RQ values >1.0: Linear fold-change value = RQ value For RQ values < 1.0:Linear ford−change value = −1/RQ value [formula]
Statistical Data Analysis Using Statminer Software: qPCR data is typically expressed in log scale and then converted to a linear fold change value. A log10RQ value of 1.0 is equivalent to a 10-fold change in gene expression. A log10RQ value of 0.3 is equivalent to a 2-fold change in gene expression. The log10RQ values have been converted to linear fold change values to simplify data interpretation.

SPINK5 = assay: Gene expression (qPCR) in NHEK: SPINK5; format: cell-based, human; conditions: 24 hours, 0.1 mM (Vitamin B12 0.03 mM), normalized to HPRT1, n.s. = not statistically significant
Method: as §1, §2, §3, §4, §5

KRT10 = assay: Gene expression (qPCR) in NHEK: KRT10; format: cell-based, human; conditions: 24 hours, 0.1 mM (Vitamin B12 0.03 mM), normalized to HPRT1, n.s. = not statistically significant
Method: as §1, §2, §3, §4, §5

| Molecule | Linear Fold-Change Value, Each Group vs the Untreated Control: KLK7 (KLK7) | Changes in microRNA Expression of hsa-miR-720 (linear fold-change) (hsa-miR-720) [fold] | Linear Fold-Change Value, Each Group vs the Untreated Control: KRT1 (KRT1) [fold] | Linear Fold-Change Value, Each Group vs the Untreated Control: LCE3D (LCE3D) | Changes in microRNA Expression of hsa-miR-203 (linear fold-change) (hsa-miR-203) [fold] | Linear Fold-Change Value, Each Group vs the Untreated Control: CALML5 (CALML5) [fold] | Linear Fold-Change Value, Each Group vs the Untreated Control: TP63 (TP63) [fold] | Linear Fold-Change Value, Each Group vs the Untreated Control: SPINK5 (SPINK5) | Linear Fold-Change Value, Each Group vs the Untreated Control: KRT10 (KRT10) | fold induction at 100 µM (hsa-miR-203; Homo sapiens, 24 h, read-out: Changes in microRNA Expression of hsa-miR-203 (linear fold-change)) | fold induction at 100 µM (TP63; Homo sapiens, 24 h, read-out: Linear Fold-Change Value, Each Group vs the Untreated Control: TP63) |
| --- | --- | --- | --- | --- | --- | --- | --- | --- | --- | --- | --- |
| Cc1cc2nc3c(=O)[nH]c(=O)nc-3n(C[C@H](O)[C@H](O)[C@H](O)CO)c2cc1C [Vitamin B2, riboflavin] | -2.03 fold | -1.93 | -4.00 | 1.60 fold | -1.96 | -1.24 | 1.34 | n.s. | -2.50 fold |  |  |
| Cc1ncc(CO)c(CO)c1O.Cl [Pyridoxine HCl] | -1.44 fold | -1.84 | -4.56 | n.s. | -1.78 | -1.90 | 1.55 | -2.05 fold | -2.45 fold |  |  |
| Nc1nc2ncc(CNc3ccc(C(=O)N[C@@H](CCC(=O)O)C(=O)O)cc3)nc2c(=O)[nH]1 [Folic acid] | -1.41 fold | -1.64 | -3.27 | -1.72 fold | -1.46 | -1.67 | 1.43 | -1.79 fold | -1.73 fold |  |  |
| NC(=O)c1cccnc1 [Niacinamide, nicotinamide] | n.s. |  |  |  |  |  |  | n.s. | n.s. | 1.03 | 1.21 |
| cobalamin [Vitamin B12] | n.s. | -2.10 | -2.42 | -1.65 fold | -1.46 | -1.73 |  | -1.63 fold | n.s. |  |  |
| CC(C)(CO)[C@@H](O)C(=O)NCCCO [D-Panthenol, (+)-(R)-2,4-Dihydroxy-N-(3-hydroxypropyl)-3,3-dimethylbutyramid] | -1.60 fold | -2.21 | -4.68 | -1.99 fold | -1.76 | -1.87 | 1.54 | -2.00 fold | -2.26 fold |  |  |
